Here are results for 3 compounds from publication PMC12292862 (Biomedicines, 2025).

Usually viability stands for a per cent measure of how many cells are alive, often set against a control. For orientation: IC50 means the concentration needed to halve the response being measured. A low value points to higher potency.

In brackets after ≈: the same amount, converted by molar mass. Entries after “also recorded” stand apart in the source; their conditions may differ. Marks after values point to notes of the source that are not given here.

Data set [1] has as its target T1, COX-1 (Ovis aries, UniProt P05979).
T1 construct: purchased Cayman Chemical 760111
T1 sequence (P05979 25-600): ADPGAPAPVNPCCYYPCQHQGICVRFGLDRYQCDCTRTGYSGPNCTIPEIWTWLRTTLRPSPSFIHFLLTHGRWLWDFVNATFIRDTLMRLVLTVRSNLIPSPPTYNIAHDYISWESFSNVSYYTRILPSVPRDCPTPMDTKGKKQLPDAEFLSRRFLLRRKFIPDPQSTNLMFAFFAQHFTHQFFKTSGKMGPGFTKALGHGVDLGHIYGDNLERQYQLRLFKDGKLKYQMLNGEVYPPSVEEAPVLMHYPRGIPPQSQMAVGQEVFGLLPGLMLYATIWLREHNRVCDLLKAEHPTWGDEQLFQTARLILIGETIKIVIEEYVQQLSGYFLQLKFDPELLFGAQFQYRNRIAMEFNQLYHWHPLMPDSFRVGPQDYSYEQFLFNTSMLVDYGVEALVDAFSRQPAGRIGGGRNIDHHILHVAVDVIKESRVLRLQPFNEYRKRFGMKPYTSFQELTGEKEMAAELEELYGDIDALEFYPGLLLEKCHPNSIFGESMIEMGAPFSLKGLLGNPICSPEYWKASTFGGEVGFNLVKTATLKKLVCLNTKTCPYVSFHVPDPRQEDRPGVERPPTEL
Description: In vitro colorimetric COX (ovine) inhibitor-screening assay, COX-1. It is filed as biochemical. The following applies: ovine COX-1, tested at 50, 100 and 150 µg/mL. How it is done: The test compounds’ ability to suppress COX-1 and COX-2 was evaluated using a colorimetric COX (ovine) inhibitor-screening method (Cayman Chemical, Item Number 760111). In brief, 150 μL of assay buffer, 10 μL of heme, 10 μL of enzyme (COX-1 or COX-2), and 10 μL of compound (1 mg/mL) make up the reaction mixture. In a final volume of […], the test compounds were evaluated at doses of 50, 100, and 150 μg/mL. The cyclooxygenase peroxidase component is used in the experiment. By monitoring the appearance of oxidized N, N, […] (TMPD) at 590 nm, the peroxidase activity is measured […]. […] The following formula was used to determine the % COX inhibition: The COX inhibition activity percentage is equal to (1 − T/C ×100), where T is the inhibitor well’s absorbance and C is the starting activity’s absorbance at 100% without the inhibitor well.

Data set [2] can be described thus: Cell viability and cytotoxicity (MTT assay). It is filed as cell-based, human. The following applies: human, WI-38 human lung fibroblast cells, WI-38 cells; for IC50: 31.25 to 1000 µg/mL. As for the experimental part:
(§1) The cell lines were obtained from VACSERA—Holding Company for Biological Products and Vaccines, Cairo, Egypt. A 96-well tissue culture plate was seeded with 1 × 10^5 cells/mL (Wl-38 cells) from the human lung fibroblast cell line, adding 100 µL per well, and incubated at 37 °C with 5% CO2 for 24 h to allow the formation of a confluent monolayer. Following incubation, the growth medium was aspirated, and the cell monolayers were washed twice with wash medium to remove residual serum. Serial two-fold dilutions of the test compound were prepared in RPMI-1640 supplemented with 2% fetal bovine serum. Each dilution (100 µL) was added to the designated wells, while three wells served as negative controls and received only maintenance medium. The plate was incubated at 37 °C for an appropriate duration, during which cellular morphology was monitored for signs of cytotoxicity, including monolayer disruption, cell rounding, shrinkage, or granulation. MTT solution (5 mg/mL in PBS) was prepared, and 20 µL was added to each well. The plate was briefly agitated at 150 rpm for 5 min and then incubated for 4 h at 37 °C to allow viable cells to metabolize MTT into insoluble formazan crystals. After incubation, the supernatant was carefully removed, and 200 µL of DMSO was added to each well to solubilize the formazan. The plates were agitated again at 150 rpm for 5 min, and the absorbance was measured at 560 nm with background subtraction at 620 nm. The resulting optical density values were directly proportional to the number of viable cells.
(§2) The information was presented as the mean ± SD of the volume difference (mL) between the control and carrageenan-treated paws. One-way analysis of variance (ANOVA) was used to analyze the experimental groups’ data, and a Tukey post hoc test was then performed. p < 0.05 was considered significant. The IC50 values were calculated using Microsoft Excel by plotting a dose–response curve between compound concentration and cell viability percentage. A linear regression or logarithmic trendline was fitted to the data points, depending on the curve behavior.
For orientation: Formazan colour is commonly taken as a measure of viable cells.

The test system of data set [3] is WI-38 human lung fibroblast cells. Description: Cell viability and cytotoxicity (MTT assay). It is filed as cell-based. Conditions: WI-38 cells; morphology. How it is done: as §1, §2
Data set [4] has as its system TNF-α. Description: Serum TNF-α (ELISA) in carrageenan-injected rats. The following applies: compounds 200 mg/kg i.p., indomethacin 10 mg/kg, mean ± SD. It is filed as in vivo, rat. As for the experimental part: (§3) The selective pro-inflammatory cytokines were measured quantitatively using rat-specific Enzyme-Linked Immunosorbent Assay (ELISA) kits from Thermo Scientific™ (Waltham, MA, USA) with CAT. No. ERCRP for CRP; from Elabscience with Cat. No. E-EL-R2856 for TNF-α and with Cat. No. E-EL-R0011 for IL-1α; from CUSABIO, Houston, TX, USA, with Cat. No. CSB-E04640r for IL-6; and from My BioSource Co, USA, with Cat. No. MBS825017 for IL-1β, with Cat. No. MBS753621 for rat cyclooxygenase 1, and with Cat. No. MBS266603 for rat cyclooxygenase 2. Meanwhile, an ovine COX inhibitor-screening in vitro assay (item number 760111) was obtained from Cayman Chemical (Ann Arbor, MI, USA). We purchased malondialdehyde (MDA), glutathione (GSH), and superoxide dismutase (SOD) detection kits from Nanjing Jiancheng Bio-Technology Co. Ltd. (Nanjing, China).
(§4) At the end of the experiments, the rats were subjected to anesthesia with chloroform and then sacrificed. Blood was obtained via heart puncture for biochemical analysis. Following the animals’ sacrifice, the paws were taken out, decalcified, and stored in a 10% formalin solution. To prepare the tissue samples, they were sliced into thicknesses of 5 µm. Hematoxylin and eosin dyes were used to create the histology slides, which were then examined using a photomicroscope (Meiji Techno®, Iruma, Japan) for pathological alterations. The presence of inflammation was documented. Protease/phosphatase inhibitor cocktail in cold phosphate-buffered saline (1:4) (pH 7, 0.01 mol/L) (Cat. No. PPC1010, Sigma-Aldrich) was used to homogenize each rat’s paw piece in a glass homogenizer. After filtering and centrifuging the resultant homogenate for five minutes at 5000× g, oxidative stress biomarkers like GSH, SOD, and MDA were measured. The trials were repeated three times.

Data set [5] has as its system malondialdehyde (MDA). The data set is described as follows: Paw tissue oxidative stress biomarker MDA. It is filed as in vivo, rat. Conditions: carrageenan rats, 200 mg/kg i.p. As for the experimental part:
as §3, §4

Data set [6] concerns superoxide dismutase (SOD). Description: Paw tissue oxidative stress biomarker SOD. Conditions: carrageenan rats, 200 mg/kg i.p. It is filed as in vivo, rat. How it is done: as §3, §4
Data set [7] concerns rat cyclooxygenase 1. Description: COX-1 level in carrageenan-injected paw (ELISA). It is filed as in vivo. Conditions: compounds 200 mg/kg i.p., indomethacin 10 mg/kg, mean ± SD. How it is done:
as §3, §4
On the technique in general: Carrageenan injected into the paw causes an acute inflammation.

The test system of data set [8] is rat paw tissue. The data set is described as follows: Histopathological examination of paw tissue (HE). It is filed as in vivo. The following applies: carrageenan-injected paw; compounds 200 mg/kg i.p., indomethacin 10 mg/kg.
Excerpt: as §4

Where [9] appears, read: listed as compound 3, 200 mg/kg.

For the compound `NC1=NC2(CCCCCC2)n2nc(C(=O)Nc3ccc(S(N)(=O)=O)cc3)nc2N1` [Compound 1, 5′-Amino-N-(4-sulfamoylphenyl). -1′H-spiro[cycloheptane-1,7′-[1,2,4]triazolo[1,5-a][1,3,5] -triazine] -2′-carboxamide], in data set [1], the “COX-1 inhibition % (mean activity)” value amounted to 70%. In data set [2], the viability at 31.25 µg/mL was 99.9% and the IC50 came out at 363 mg/L (≈ 867 µM). Moreover, in data set [3], the “concentration above which cells shrink and lose fibroblast-like structure” value is “above 125 µg/mL”. Further, in data set [4], the TNF-α is listed as 8.27 ± 0.19 ^b pg/mL. Moreover, the MDA level result in data set [5] is listed as “notable improvements”. Further, the SOD activity result in data set [6] is “notable improvements”. Also, the COX-1 level in data set [7] is 4.31 ± 0.90 ng/mL. The “histopathological findings of paw tissue (HE)” value (“histopathological findings” for short) in data set [8] is given as “mild inflammatory dermal edema”.

Take `CC1(C)CC(=O)CC2(C1)N=C(N)Nc1nc(C(=O)Nc3ccc(S(N)(=O)=O)cc3)nn12` (stereo not drawn) [Compound 2]: the “COX-1 inhibition % (mean activity)” value in data set [1] is given as 69%. In data set [2], the viability at 31.25 µg/mL came to 99.9% and the IC50 was determined as 328 mg/L (≈ 734 µM). Also, the “concentration above which cells shrink and lose fibroblast-like structure” value in data set [3] is on record as “above 125 µg/mL”. Further, in data set [4], the TNF-α is given as 9.38 ± 0.20 ^b pg/mL. In data set [5], the MDA level result was “notable improvements”. Further, the SOD activity entry in data set [6] is on record as “notable improvements”. Further, the COX-1 level in data set [7] came out at 5.24 ± 0.09 ng/mL. Moreover, in data set [8], the “histopathological findings” value is “moderate edema”.

`NC1=NC2(c3ccccc3Cc3ccccc32)n2nc(C(=O)Nc3ccc(S(N)(=O)=O)cc3)nc2N1` [Compound 3]: in data set [1], the “COX-1 inhibition % (mean activity)” value was determined as 70%. Moreover, the viability at 31.25 µg/mL in data set [2] was 99.8%. Half-maximal inhibition in data set [2] (IC50) was put at 148 mg/L (≈ 296 µM). Besides, the “concentration above which cells shrink and lose fibroblast-like structure” value in data set [3] was “above 62.5 µg/mL”. In addition, the TNF-α is given as 7.16 ± 0.13 pg/mL in data set [4] and 7.16 ± 0.13 ^b pg/mL in data set [4] (listed as C3). Besides, the MDA level result in data set [5] (200 mg/kg) is recorded as “close to normal”; in data set [5] (setting [9]), 35.71 ± 0.51 nmol/g tissue. In addition, the SOD activity entry in data set [6] (200 mg/kg) is given as “near-control values”; in data set [6] (setting [9]), 38.48 ± 0.31 U/mg protein. Moreover, in data set [7], the COX-1 level amounted to 2.82 ± 0.08 ng/mL. The “histopathological findings” value in data set [8] is “normal dermis; also recorded: normal dermis without any lesion; also recorded: normal histological structure without edema or lesions”.
